Results on four compounds are retold here after paper PMC7563863, “Quantification of Boron Compound Concentration for BNCT Using Positron Emission Tomography” (Cells, 2020).

The IC50 is the concentration needed to halve the response being measured.

Data set [1] is described as follows: Estimated concentration in the blood after injection. The format is in vivo. To be noted: rat. The protocol: The initial concentration of NaBF4 in the blood after injection of 110 mg/kg in the rat is about 16 mM, but as it can be seen from Figure 3, it is expected to drop fast to about 25% at 90 min—that is, to 4 mM. BPA is injected at doses of 500 mg/kg, which in rats, results in an initial concentration in the blood of 37 mM. The transporter of BPA is L-type amino acid transporter (LAT1), which for the most similar compound, phenylalanine has an IC50 of about 60 µM [20]. This is a […] of magnitude higher concentration in the blood for phenylalanine, and BPA still allows reaching therapeutic boron concentrations in the tumor.

In another data set the test system is NIS. Further details: method as in PMID 21085047. Particulars: cited from earlier work.
Data set [2] is described as follows: Calculation of boron concentration in thyroid from PET activity concentration and production data. The format is in vivo, rat. The text has this: As injection solution of the [^18F]NaBF4 tracer contains the majority of unlabeled NaBF4; from the NaBF4 molar concentration in the synthesis solution, we could know the labeled to unlabeled tracer compound concentration ratio at the beginning of the PET study. […] The boron concentration is known only with the spatial resolution of the PET image, which in the Mosaic scanner case is about 2.3 mm. The microscopic details of the boron concentration were inferred from NIS immunofluorescence, assuming that the BF4^− concentration is only significant in NIS-containing cells.
Briefly, at the radiotracer production stage, the mass of NaBF4, Milli-Q water, and activity and volume of the [^18F]F^- Milli-Q water solution arriving from the cyclotron are known. Correcting for ^18F decay during the production and time needed for injection, with the known volume and activity of the produced and injected [^18F]NaBF4 tracer, we can calculate the amount of NaBF4 left from the production stage in the tissue from the activity concentration expressed initially as maximum local value of standard uptake value (SUVmax), then recalculated to kBq/mL and, then, to the molar concentration of ^18F at the beginning of the PET study.
To calculate the boron concentration, we start from calculating the ^18F molar concentration in the product to be injected. At the end of synthesis (EOS, decay-corrected to PET study start), we received 4.3 GBq of [^18F]NaBF4 in 2 mL of saline. As the activity concentration A is A=N/τ , where N is the number of ^18F atoms and τ=t1/2/ln(2) , t1/2 of ^18F being 109.7 min expressed in seconds, and diluted in 25.9 mL of Milli-Q water, we obtained 33.9 nM of [^18F]NaBF4 at the EOS and 351 µM of unlabeled NaBF4. We can calculate the molar concentration in the hyperplasia maximum from the maximum of the curve in Figure 3: 2.3 MBq/mL. […] Dividing the calculated concentration of [^18F]NaBF4 36.8 pM by 9.7 × 10^−5, we receive, therefore, a 381 nM boron concentration, which is […] of the fraction of required 2 mM ^10B concentration for BNCT treatment.

Another data set has as its system thyroid gland. The experiment in a line: [^18F]FDG PET/CT of the thyroid gland. Type of data set: in vivo, rat. The protocol: PET imaging was carried out in a Mosaic microPET scanner (Philips, Andover, MA, USA) followed by a CT scan in NanoCT (Bioscan/Mediso, Budapest, Hungary). Briefly, animals were anesthetized with isoflurane. A catheter was placed in the tail vein. A radiotracer (41 MBq) was injected with a maximum limit of 5 mL/kg in a bolus injection. In dynamic studies, this was done already in the PET scanner on a heated animal bed (Équipement Vétérinaire MINERVE, Esternay, France). For static studies, animals were awakened and let up for 45-min radiotracer uptake. Then, the animal was anesthetized again and placed in the heated bed of the PET scanner. The dynamic scans were of 90 min centered in the thyroids; the static ones were three beds of 10 cm longitudinal lengths starting from the head towards the tail. Each bed position was scanned for 15 min. CT scans were acquired in 45 kVp with 177 µA at 500 ms exposition and 240 projections per rotation.
PET images were reconstructed using an iterative method with decay, scatter, and random corrections without attenuation correction. […] CT images were reconstructed using the filtered back-projection method with an exact cone-beam and with a Shepp Logan 98% filter, giving a 0.2 mm uniform pixel size. […]

Data set [3] has as its system L-type amino acid transporter (LAT1). Further details: method as in PMID 30048132. To be noted: cited from earlier work.
Data set [4] has as its target T1, sodium-iodine symporter (NIS) in thyroids (Rattus norvegicus, UniProt Q63008).
T1 construct: It was injected into the tail veins of rats; from tissue; host or cells: thyroid (hyperplastic, perchlorate-treated) of living Wistar rats
T1 sequence (Q63008 1-618): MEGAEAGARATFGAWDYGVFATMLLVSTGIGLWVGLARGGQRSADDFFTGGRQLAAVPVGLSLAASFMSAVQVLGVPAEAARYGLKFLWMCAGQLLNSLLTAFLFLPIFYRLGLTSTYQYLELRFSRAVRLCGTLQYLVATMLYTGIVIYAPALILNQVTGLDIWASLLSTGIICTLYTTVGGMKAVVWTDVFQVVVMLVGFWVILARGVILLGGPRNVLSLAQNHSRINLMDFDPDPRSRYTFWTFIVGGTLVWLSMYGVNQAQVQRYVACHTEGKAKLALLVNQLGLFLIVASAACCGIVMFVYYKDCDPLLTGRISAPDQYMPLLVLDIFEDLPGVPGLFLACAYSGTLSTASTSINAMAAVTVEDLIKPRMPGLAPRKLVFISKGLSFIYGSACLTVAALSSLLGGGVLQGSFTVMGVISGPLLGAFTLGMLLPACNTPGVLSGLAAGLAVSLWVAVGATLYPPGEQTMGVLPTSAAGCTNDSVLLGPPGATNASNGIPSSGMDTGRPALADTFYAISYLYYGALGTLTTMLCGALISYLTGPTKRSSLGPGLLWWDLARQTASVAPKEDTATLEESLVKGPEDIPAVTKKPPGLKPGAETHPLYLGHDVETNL
The experiment in a line: Dynamic [^18F]NaBF4 PET/CT of the hyperplastic thyroid, time-activity curve. The format is in vivo. The protocol: Female Wistar rats, aged 16–17 weeks old and weighing 200–220 g at the study starting moment, were kept in pathogen-free cages at the animal facilities of the School of Medicine (University of Seville, Seville, Spain) under controlled laboratory conditions (temperature 20 ± 2 °C, humidity 40–50%, lighting regimen of 12 light/12 dark hours). Animals were fed a normal laboratory diet (Teklad diet, Envigo, Cambridgeshire, UK) and fresh tap water ad libitum. The study was approved by the Ethical Committee of the Faculty of Medicine, University of Seville. Animal handling was conducted following the Guide for the Care and Use of Laboratory Animals. Rats were divided into two equal groups: the control group and the treated group. Animals from the treated group received 1% potassium perchlorate (w/v) in the drinking water, ad libitum, for […]. All experiments were carried with the approval of the ethics committee of the University of Seville.
PET imaging was carried out in a Mosaic microPET scanner (Philips, Andover, MA, USA) followed by a CT scan in NanoCT (Bioscan/Mediso, Budapest, Hungary). Briefly, animals were anesthetized with isoflurane. A catheter was placed in the tail vein. A radiotracer (41 MBq) was injected with a maximum limit of 5 mL/kg in a bolus injection. […]

Data set [5] addresses T1, sodium-iodine symporter (NIS) in thyroids. As to the kind of experiment: Two-tissue compartment kinetic modeling of the tracer in the thyroid VOI (PMOD PKIN). Particulars: two-tissue compartment model, hyperplastic thyroid. Type of data set: in vivo. The text has this: The kinetic modeling of the tracer in VOIs was done using two tissue compartment models shown in Equation (1). Cp is the activity concentration of the tracer in the plasma, C1 and C2 are concentrations in two compartments, k are the kinetic constants, and t is time. The kinetic modeling was done in the PMOD module PKIN using full blood as the input function, with linear interpolation between experimental points taken from the dynamic image of the left ventricle of the heart.
(1) dC2(t)/dt=k3C1(t)−k4C2(t)dC1(t)/dt=K1Cp(t)−(k2 + k3)C1(t) + k4C2(t)

Data set [6] shares this target. Further details: method as in PMID 20577737. Particulars: cited from earlier work.

With `F[B-](F)(F)F.[Na+]` [NaBF4], the “concentration in the blood at 90 min” value in data set [1] (110 mg/kg, expected) was 4000 µM. In data set [1] (expected from Figure 3 blood curve), the “concentration in the blood at 90 min as fraction of initial” value is “about 25%”. For the same compound, in the data set on NIS, the IC50 is 1.6 µM. In data set [2] (381 nM boron in hyperplastic thyroid), the “fraction of the required 2 mM ^10B concentration reached” value was 19 × 10^−5. In addition, the “boron concentration in thyroid with hyperplasia” value in data set [2] (at peak, after 53 nmol (21 µg/kg) NaBF4 injected) is recorded as 381 nM.
Turning to `OC[C@H]1OC(O)[C@H]([18F])[C@@H](O)[C@@H]1O` (stereo partly drawn) [[^18F]FDG, [^18F]fluorodeoxyglucose], the “uptake in control and hyperplastic thyroid” value with thyroid gland (control thyroid and thyroid with hyperplasia) is reported as “neither the control nor thyroid with hyperplasia show an abnormal uptake”. Moreover, the “SUVmax in thyroid tumor” value in the data set on thyroid gland (thyroid tumor) is given as “two”.
In the case of `N[C@@H](Cc1ccccc1)C(=O)O` [phenylalanine], the IC50 in data set [3] is ~60 µM.
As to `F[B-](F)(F)F.[Na+]` [[^18F]NaBF4], the capture in bones entry in data set [4] (PET) is recorded as “no capture in bones”. The “peak activity concentration in thyroid” value in data set [4] (hyperplastic thyroid, about 17 min after injection) turned out to be 2.3 MBq/mL. Moreover, in data set [5], the Flux was 0.28, the K1 came out at 1.89, the Kl/k2 came to 3.60 and the “Vs (distribution volume of the specific binding)” value is 3.96. Besides, in data set [5], the “Vt (distribution volume)” value came to 7.56; the k2 stood at 0.52; the k3 came out at 0.09; the “k3/k4 (nondisplaceable binding potential, BPND)” value was found to be 1.1. Further, the k4 in data set [5] worked out at 0.08. In addition, the “molar concentration of [^18F]NaBF4 in thyroid at peak” value in data set [2] (hyperplasia maximum, from 2.3 MBq/mL) was 36.8 pM. Besides, the stability in vivo entry in data set [6] is listed as “stable in vivo”.
